For 42 molecules, IC50 results are on record in patent US20250214977A1, “STAT6 INHIBITORS AND USES THEREOF” (Kymera Therapeutics, Inc., priority 2024, published 2025).

A value given as a limit tells only on which side of the number the result lay.

The subject of test [1] is Phosphorylation of STAT6 in human PBMC (CD19+ B cells). Briefly: Phosphorylated STAT6 (pSTAT6) flow cytometry assay in human PBMC, IL-4 stimulated. Type of test: cell-based. The following applies: compound 1 hour, 1 ng/ml IL-4 for 15 minutes, read-out: STAT6 IL4 pSTAT6 assay in PBMC: Average IC50. How it is done:
Example 2. Phosphorylated STAT6 (pSTAT6) Flow Cytometry Assay in Human PBMC
Phosphorylation of STAT6 in human PBMC was quantitatively measured using flow cytometry technology. Human PBMC were seeded in 96-well plates with a density of 0.3 to 0.5 million cells per well in 100 μl fresh media. Compounds were then added to the assay plates with a final top concentration of up to 30 μM in a 1:3 dilution series with total of 9 doses. The assay plates were incubated for 1 hour at 37° C. under 5% CO2. The cells were then stimulated with 1 ng/ml of IL-4 (R&D Systems, Cat #6507-IL) for 15 minutes, followed by fixation for 30 minutes at 4° C. Cells were spun down at 350 g for 5 minutes. The supernatant was removed and cells were washed once with FACS buffer. Cells were permeabilized with 90% MeOH/H2O for 30 minutes at 4° C., followed by one wash with FACS buffer. Non-specific binding were blocked with human Fc for 1 hour at 4 C, followed by one wash with FACS buffer. AF488 conjugated pSTAT6 antibody (BD Biosciences, Cat #612600, 1:100 dilution) and PE conjugated CD19 antibody (BD Biosciences, Cat #341103, 1:50 dilution) diluted in 100 μl FACS buffer was added to each well with overnight incubation at 4° C. Cells were then washed once with FACS buffer and resuspended in 200 μl of FACS buffer for flow cytometry to quantify pSTAT6 in CD19+ B cells. The data was analyzed by GraphPad Prism and the dose dependent pSTAT6 inhibition was fit using the four-parameter inhibitor vs. response nonlinear regression.
Background: Flow cytometry measures light scatter and fluorescence of single cells or particles in a stream.

For test [2], the system named is Phosphorylation of STAT6 in human A549 cells. The test can be described thus: Phosphorylated STAT6 (pSTAT6) flow cytometry assay in human A549 cells. The test is classed as cell-based. The conditions noted are these: read-out: STAT6 IL4 pSTAT6 assay in A549 cells: Average IC50. An excerpt: Example 3. Phosphorylated STAT6 (pSTAT6) Flow Cytometry Assay in Human A549 Cells
Phosphorylation of STAT6 in human A549 cells was quantitatively measured using flow cytometry technology.

As usually defined, the IC50 is the concentration that gives 50% inhibition. Regarding `CN(C)C(=O)c1cc2cc(C3=CCCN(C(=O)[C@H]4Cc5ccc(O)cc5CN4)C3)ccc2o1` [Example I-239], the IC50 in test [1] is more than 100000 nM.

As for `CN(C)C(=O)c1cc2ccc(C3=CCCN(C(=O)CCCn4c(=O)[nH]c5ccccc54)C3)cc2[nH]1` [Example I-85], the IC50 in test [1] was more than 100000 nM.

As to `CN(C)C(=O)c1cc2ccc(C3=CCCN(C(=O)c4cc(=O)c(OCc5ccccc5)c[nH]4)C3)cc2[nH]1` [Example I-110], in test [1], the IC50 was more than 100000 nM.

Regarding `C#Cc1cc(C2=CCCN(C(=O)CCn3ccnn3)C2)cc2cc(C(=O)N(C)C)oc12` [Example I-23], the IC50 in test [1] was more than 100000 nM.

Turning to `COC(=O)C1CCC(c2ccc3oc(C(=O)N(C)C)cc3c2)CN1C(=O)CCn1ccnn1` (mixture of isomers) [Example I-2], in test [1], the IC50 was more than 100000 nM.

As to `CN(C)C(=O)c1cc2cc(C3=CCCN(C(=O)Cn4ccnc4)C3)ccc2o1` [Example I-311], the IC50 in test [1] is more than 100000 nM.

Turning to `CN(C)C(=O)c1cc2cc(C3=CCCN(C(=O)Cc4nc5ccccc5s4)C3)ccc2o1` [Example I-221], the concentration for half-maximal inhibition (IC50) in test [1] was more than 100000 nM.

For the molecule `CC(=O)N1CCc2ccccc2[C@H]1C(=O)N1CCC=C(c2ccc3oc(C(=O)N(C)C)cc3c2)C1` (single isomer, unassigned) [Example I-176], in test [1], the IC50 was more than 100000 nM.

On to `CN(C)C(=O)c1cc2cc(C3=CCCN(C(=O)C4Cc5ccccc5CN4C=O)C3)ccc2[nH]1` (stereo not drawn) [Example I-201], for which, in test [1], the IC50 is more than 100000 nM.

As to `CCCN(C)C(=O)c1cc2cc(C3=CCCN(C(=O)CCn4ccnn4)C3)ccc2o1` [Example I-235], the IC50 in test [1] was more than 100000 nM.

Regarding `CN(C)C(=O)c1cc2c(-c3ccc(O)cc3)cc(C3=CCCN(C(=O)CCn4ccnn4)C3)cc2[nH]1` [Example I-22], in test [1], the IC50 was 100 to 1000 nM.

In the case of `CN(C)C(=O)c1cc2cc(C3=CCCN(C(=O)CC4CCOCC4)C3)ccc2o1` [Example I-255], the IC50 in test [1] was more than 100000 nM.

For the molecule `CN(C)C(=O)c1cc2ccc(C3=CCCN(C(=O)Cn4ccnn4)C3)cc2[nH]1` [Example I-37], in test [1], the IC50 is 10000 to 100000 nM.

Regarding `CN(C)C(=O)c1cc2ccc(C3=CCCN(C(=O)c4cc5occc5n4-c4ccccc4)C3)cc2[nH]1` [Example I-102], the IC50 in test [1] is 10000 to 100000 nM.

For `COc1cccnc1N1CCN(C(=O)c2cc3c(C4CCCCC4)cc(C4=CCCN(C(=O)CCn5ccnn5)C4)c(F)c3[nH]2)CC1` [Example I-579], the IC50 in test [2] was less than 100 nM.

On to `COc1ccccc1-c1cc(C(=O)N2CCN(c3ncc(F)cc3OC)CC2)cc2cc(C3=CCCN(C(=O)CCn4ccnn4)C3)n(CC(C)C)c12` [Example I-521], for which, in test [2], the IC50 is less than 100 nM.

With `Cc1ccc(-c2cc(C3=CCCN(C(=O)CCn4ccnn4)C3)cc3cc(C(=O)N(C)C)oc23)cn1` [Example I-1084], in test [2], the IC50 was less than 100 nM.

On to `COc1ccccc1-c1cc(C2=CCCN(C(=O)CCn3ccnn3)C2)c(F)c2[nH]c(C(=O)N3CC(Oc4ccc(F)cc4)C3)cc12` [Example I-999], for which the IC50 in test [2] is less than 100 nM.

`CN(C)C(=O)c1cc2c(-c3ccccc3S(C)(=O)=O)cc(C3=CCCN(C(=O)CCn4ccnn4)C3)c(F)c2[nH]1` [Example I-1068]: the half-inhibitory concentration (IC50) in test [2] is less than 100 nM.

For `COc1ncccc1-c1cc(C2=CCCN(C(=O)CCn3ccnn3)C2)c(F)c2[nH]c(C(=O)N3CCN(C4CC4)CC3)cc12` [Example I-602], the IC50 in test [2] is less than 100 nM.

As to `COc1ccccc1N1CCN(C(=O)c2cc3c(-c4cccc(F)c4OC)cc(C4=CCCN(C(=O)CCn5ccnn5)C4)c(F)c3[nH]2)CC1` [Example I-567], the IC50 in test [2] was less than 100 nM.

As for `CCc1nccn1-c1cc(C2=CCCN(C(=O)CCn3ccnn3)C2)c(F)c2[nH]c(C(=O)N3CCN(c4ncccc4OC)CC3)cc12` [Example I-692], in test [2], the IC50 is more than 100000 nM.

In the case of `COc1ccccc1-c1cc(C2=CCCN(C(=O)CCn3ccnn3)C2)c(F)c2[nH]c(C(=O)N3CCN(c4ccccc4OC(F)(F)F)CC3)cc12` [Example I-420], the IC50 in test [2] lay in the range of 100 to 1000 nM.

`Cc1ccc(C#N)cc1-c1cc(C2=CCCN(C(=O)CCn3ccnn3)C2)cc2cc(C(=O)N(C)C)oc12` [Example I-1079]: in test [2], the IC50 was less than 100 nM.

On to `COc1ccccc1-c1cc(C2=CCCN(C(=O)CCn3ccnn3)C2)c(F)c2[nH]c(C(=O)N3CCN(Cc4nc(C)cs4)CC3)cc12` [Example I-1185], for which the IC50 in test [2] was less than 100 nM.

Turning to `COc1cc(F)c(F)cc1-c1cc(C2=CCCN(C(=O)CCn3ccnn3)C2)c(F)c2[nH]c(C(=O)N3CCN(C4CC4)CC3)cc12` [Example I-604], the IC50 in test [2] was less than 100 nM.

Turning to `COc1ccccc1-c1cc(C2=CCCN(C(=O)CCn3ccnn3)C2)c(F)c2[nH]c(C(=O)N3CCN(c4c(C)cc[nH]c4=O)CC3)cc12` [Example I-1030], in test [2], the IC50 was less than 100 nM.

With `COc1cnccc1-c1cc(C2=CCCN(C(=O)CCn3ccnn3)C2)c(F)c2[nH]c(C(=O)N3CCN(c4ncccc4OC)CC3)cc12` [Example I-366], the IC50 in test [2] is less than 100 nM.

Turning to `COc1cc(-c2cc(C3=CCCN(C(=O)CCn4ccnn4)C3)cc3cc(C(=O)N(C)C)oc23)cc(OC)c1OC` [Example I-1088], the IC50 in test [2] is less than 100 nM.

`CCc1cc(C)ncc1-c1cc(C2=CCCN(C(=O)CCn3cccn3)C2)c(F)c2[nH]c(C(=O)N3CCN(c4nc(C)c(F)cc4OC)CC3)cc12` [Example I-738]: in test [2], the IC50 was less than 100 nM.

As to `COc1ccncc1-c1cc(C2=CCCN(C(C)=O)C2)c(F)c2[nH]c(C(=O)N3CCN(c4ccccc4OC)CC3)cc12` [Example I-409], the IC50 in test [2] is more than 100000 nM.

In the case of `COc1ccncc1-c1cc(C2=CCCN(C(=O)CCn3ccnn3)C2)c(F)c2[nH]c(C(=O)N3CCN(c4cc5cc[nH]c5nc4C#N)CC3)cc12` [Example I-485], in test [2], the IC50 was less than 100 nM.

On to `CCOc1ccccc1-c1cc(C2=CCCN(C(=O)CCn3ccnn3)C2)c(F)c2[nH]c(C(=O)N3CCN(c4ncccc4OC)CC3)cc12` [Example I-412], for which the half-inhibitory concentration (IC50) in test [2] is more than 100000 nM.

With `CN(C)C(=O)c1cc2c(-c3cc4cc[nH]c4cc3Cl)cc(C3=CCCN(C(=O)CCn4ccnn4)C3)cc2[nH]1` [Example I-1066], the IC50 in test [2] was less than 100 nM.

Take `CNc1ccc(-c2cc(C3=CCCN(C(=O)CCn4ccnn4)C3)c(F)c3[nH]c(C(=O)N(C)C)cc23)c(OC)c1` [Example I-1059]: the IC50 in test [2] was less than 100 nM.

For `COc1cc2c(-c3cc(C4=CCCN(C(=O)CCn5ccnn5)C4)c(F)c4[nH]c(C(=O)N5CCN(c6ncc(F)cc6OC)CC5)cc34)ccnc2cc1F` [Example I-691], the IC50 in test [2] was less than 100 nM.

With `COc1ccccc1-c1cc(C2=CCCN(C(=O)CCn3ccnn3)C2)c(F)c2[nH]c(C(=O)N3CCc4cc(C(F)(F)F)ccc4C3)cc12` [Example I-977], the concentration for half-maximal inhibition (IC50) in test [2] was less than 100 nM.

For the molecule `COc1cccc(N2CCN(C(=O)c3cc4c(-c5ccc(F)cc5OC)cc(C5=CCCN(C(=O)CCn6ccnn6)C5)c(F)c4[nH]3)CC2)n1` [Example I-589], the IC50 in test [2] is less than 100 nM.

As to `CC(=O)N1CCC=C(c2cc(-c3cnc4[nH]cc(C)c4c3)c3cc(C(=O)N(C)C)[nH]c3c2F)C1` [Example I-897], the IC50 in test [2] lay within 100 to 1000 nM.

As to `CN(C)C(=O)c1cc2cc(C3=CCCN(C(=O)CCn4ccnn4)C3)cc(NC3CCCC3)c2o1` [Example I-874], the IC50 in test [2] is 100 to 1000 nM.

With `Cc1cnnn1CCC(=O)N1CCC=C(c2ccc3cc(C(=O)N(C)C)[nH]c3c2)C1` [Example I-827], in test [2], the IC50 lay within 100 to 1000 nM.

As to `COc1ccnc(N2CCN(C(=O)c3cc4c(-c5ccccc5OC)cc(C5=CCCN(C(=O)CCn6ccnn6)C5)c(F)c4[nH]3)CC2)c1` [Example I-900], the IC50 in test [2] was less than 100 nM.
